Where two headings read alike, the source gives them in different places.
Experiments:
Ctenocephalides felis = experiment: In vitro contact activity against fleas (coated substrate); conditions: for mortality at 0.006 ppm: Trial 3, dose 0.006 ppm; for mortality at 0.024 ppm: Trial 3, dose 0.024 ppm; for mortality at 0.098 ppm: Trial 3, dose 0.098 ppm; for mortality at 0.39 ppm: Trial 3, dose 0.39 ppm; for mortality at 1.56 ppm: Trial 3, dose 1.56 ppm; for mortality at 6.25 ppm: Trial 3, dose 6.25 ppm; for mortality at 25 ppm: Trial 3, dose 25 ppm; for mortality at 100 ppm: Trial 3, dose 100 ppm
Procedure: Ctenocephalides felis (Avista Pharma, Inc., RTP, NC), 1-7days post hatch, held in an environmental chamber at 24° C., 85% humidity.
For flea contact tests, vial caps were pre-drilled with a single hole in the center of each cap to allow air exchange. A filter paper (Whatman Grade 540 2.1 cm) was placed in the lid of each vial. Pipe cleaners cut to 0.5 inches were inserted in each test vial. An aliquot was taken from each compound stock and added to an acetone/triton solution to achieve the desired top concentrations for the study. Serial dilutions were conducted from the top dose (i.e. 100 ppm) to achieve the desired concentration for EC50 and EC90 determination. The final DMSO concentration was 0.5%. A 75 μL aliquot of each compound formulation was added to each 0.5 inch pipe cleaner contained in the treatment vial. The vials were loosely capped and allowed to dry for a minimum of four hours in a chemical fume hood.
Compounds tested were C1 racemate, the C1 (R) enantiomer, and the C1 (S) enantiomer. For Trial 3, the C1 (R) enantiomer and the C1 (S) enantiomer were further chiral purified to achieve >99% purity.
For both contact and ingestion assays, ten newly emerged unfed adult fleas, 0-7 days old Ctenocephalides felis, from a laboratory colony, were aspirated into each vial or cage. The test vials for contact assays were held in an environmental chamber at 24° C., 80% humidity with light/dark cycles (12 hours each). The cages for flea ingestion assays were held in a temperature-controlled artificial feeding apparatus to allow continual access to organic bovine blood containing the desired concentration of compound. Fresh aliquots of compound-spiked bovine blood were provided daily for the duration of the study.
Fleas were evaluated for percent mortality at various time points between 2 hours and 48 hours post infestation. Fleas showing normal movement and/or jumping ability were considered viable and those showing no movement after tapping the vials were scored as dead.

Aedes aegypti = experiment: In vitro ingestion activity against adult mosquitoes (artificial feeding, bovine blood); conditions: read-out: Mortality % R1 + R2
Procedure: Aedes aegypti (Louisiana Biologicals Inc., New Orleans, La.) eggs were allowed to hatch, close, and age between 3-5 days in an environmental chamber at 26° C., 80% humidity with light/dark cycles.
For mosquito ingestion tests, serial dilutions of the compound stock were performed using DMSO to achieve the desired range for EC50 and EC90 determination. An aliquot of each compound dilution was added to organic bovine blood with a final DMSO concentration of 0.5% and placed in a temperature-controlled artificial feeding container.
Compounds tested were: the C1 racemate, C1 (R) enantiomer, and the C1 (S) enantiomer. For Trial 3, the C1 (R) enantiomer and the C1 (S) enantiomer were further chiral purified to achieve >99% purity.
For both contact and ingestion assays, five female Aedes aegypti adults were added to each vial or cage. The test vials for contact assays were held in an environmental chamber at 24° C., 80% humidity with light/dark cycles (12 hours each). The cages for mosquito ingestion assays were held in a temperature-controlled artificial feeding apparatus to allow continual access to organic bovine blood containing the desired concentration of compound. Fresh aliquots of compound-spiked bovine blood were provided daily for the duration of the study.
Assessment of mortality/knockdown was performed at various time points between 30 minutes and 24 hours post infestation. Mosquitoes showing no movement or mosquitoes that were knocked down were noted as dead. Results from trial 1 and trial 2 contact assays are shown in Tables 12 and 13, respectively and the results from trial 3 mosquito ingestion assay is shown in table 14.
For the mosquito contact and ingestion assays, each replicate contained 5 mosquitoes. For ease of calculation, the two replicates were added to equal a total of 10 mosquitoes.

Compound O=C(CC(F)(F)F)N1CC2(C1)OCc1cc(C3=NSC(c4cc(Cl)c(F)c(Cl)c4)(C(F)(F)F)C3)ccc12 (racemic) [C1 racemate, 1-[6-[5-(3,5-dichloro-4-fluoro-phenyl)-5-(trifluoromethyl)-4H-isothiazol-3-yl]spiro[1H-isobenzofuran-3,3′-azetidine]-1′-yl]-3,3,3-trifluoro-propan-1-one] has a mortality at 0.006 ppm (Ctenocephalides felis; 6 h, Rep1) of 0%, a mortality at 0.006 ppm (Ctenocephalides felis; 6 h, Rep2) of 0% and a mortality at 0.024 ppm (Ctenocephalides felis; 6 h, Rep1) of 0%. It also gave a mortality at 0.024 ppm (Ctenocephalides felis; 6 h, Rep2) of 0%, a mortality at 0.098 ppm (Ctenocephalides felis; 6 h, Rep1) of 0% and a mortality at 0.098 ppm (Ctenocephalides felis; 6 h, Rep2) of 0%. For the same compound, the mortality at 0.39 ppm (Ctenocephalides felis; 6 h, Rep1) was 0%, the mortality at 0.39 ppm (Ctenocephalides felis; 6 h, Rep2) was 0% and the mortality at 1.56 ppm (Ctenocephalides felis; 6 h, Rep1) was 0%. The mortality at 1.56 ppm (Ctenocephalides felis; 6 h, Rep2) was 0%, the mortality at 6.25 ppm (Ctenocephalides felis; 6 h, Rep1) was 0% and the mortality at 6.25 ppm (Ctenocephalides felis; 6 h, Rep2) was 0%. The mortality at 25 ppm (Ctenocephalides felis; 6 h, Rep1) was 0%, the mortality at 25 ppm (Ctenocephalides felis; 6 h, Rep2) was 0% and the mortality at 100 ppm (Ctenocephalides felis; 6 h, Rep1) was 0%. It also gave a mortality at 100 ppm (Ctenocephalides felis; 6 h, Rep2) of 0%, a mortality at 0.006 ppm (Ctenocephalides felis; 24 h, Rep1) of 0% and a mortality at 0.006 ppm (Ctenocephalides felis; 24 h, Rep2) of 0%. The mortality at 0.024 ppm (Ctenocephalides felis; 24 h, Rep1) was 0%, the mortality at 0.024 ppm (Ctenocephalides felis; 24 h, Rep2) was 0% and the mortality at 0.098 ppm (Ctenocephalides felis; 24 h, Rep1) was 0%. For the same compound, the mortality at 0.098 ppm (Ctenocephalides felis; 24 h, Rep2) was 0%, the mortality at 0.39 ppm (Ctenocephalides felis; 24 h, Rep1) was 0% and the mortality at 0.39 ppm (Ctenocephalides felis; 24 h, Rep2) was 0%. For the same compound, the mortality at 1.56 ppm (Ctenocephalides felis; 24 h, Rep1) was 0%, the mortality at 1.56 ppm (Ctenocephalides felis; 24 h, Rep2) was 0% and the mortality at 6.25 ppm (Ctenocephalides felis; 24 h, Rep1) was 0%. It also gave a mortality at 6.25 ppm (Ctenocephalides felis; 24 h, Rep2) of 0%, a mortality at 25 ppm (Ctenocephalides felis; 24 h, Rep1) of 0% and a mortality at 25 ppm (Ctenocephalides felis; 24 h, Rep2) of 0%. The mortality at 100 ppm (Ctenocephalides felis; 24 h, Rep1) was 70%, the mortality at 100 ppm (Ctenocephalides felis; 24 h, Rep2) was 40% and the mortality at 0.006 ppm (Ctenocephalides felis; 48 h, Rep1) was 0%. For the same compound, the mortality at 0.006 ppm (Ctenocephalides felis; 48 h, Rep2) was 0%, the mortality at 0.024 ppm (Ctenocephalides felis; 48 h, Rep1) was 0% and the mortality at 0.024 ppm (Ctenocephalides felis; 48 h, Rep2) was 0%. It also gave a mortality at 0.098 ppm (Ctenocephalides felis; 48 h, Rep1) of 0%, a mortality at 0.098 ppm (Ctenocephalides felis; 48 h, Rep2) of 0% and a mortality at 0.39 ppm (Ctenocephalides felis; 48 h, Rep1) of 0%. It also gave a mortality at 0.39 ppm (Ctenocephalides felis; 48 h, Rep2) of 0%, a mortality at 1.56 ppm (Ctenocephalides felis; 48 h, Rep1) of 0% and a mortality at 1.56 ppm (Ctenocephalides felis; 48 h, Rep2) of 0%. The mortality at 6.25 ppm (Ctenocephalides felis; 48 h, Rep1) was 0%, the mortality at 6.25 ppm (Ctenocephalides felis; 48 h, Rep2) was 0% and the mortality at 25 ppm (Ctenocephalides felis; 48 h, Rep1) was 80%. It also gave a mortality at 25 ppm (Ctenocephalides felis; 48 h, Rep2) of 70%, a mortality at 100 ppm (Ctenocephalides felis; 48 h, Rep1) of 100% and a mortality at 100 ppm (Ctenocephalides felis; 48 h, Rep2) of 100%. It also gave a mortality at 0.049 ppm (Aedes aegypti; 24 h) of 71.4%, a mortality at 0.2 ppm (Aedes aegypti; 24 h) of 100% and a mortality at 0.78 ppm (Aedes aegypti; 24 h) of 100%. It also gave a mortality at 3.125 ppm (Aedes aegypti; 24 h) of 100%, a mortality at 12.5 ppm (Aedes aegypti; 24 h) of 100% and a mortality at 50 ppm (Aedes aegypti; 24 h) of 100%. The mortality at 0.049 ppm (Aedes aegypti) was 0%, the mortality at 0.2 ppm (Aedes aegypti) was 0% and the mortality at 0.78 ppm (Aedes aegypti) was 50%. For the same compound, the mortality at 3.125 ppm (Aedes aegypti) was 100%, the mortality at 12.5 ppm (Aedes aegypti) was 100% and the mortality at 50 ppm (Aedes aegypti) was 100%.

Reference: patent US10807992B2, “Single enantiomer antiparasitic compounds” (priority 2017, dated 2020)
